This is an account of results in ChEMBL document CHEMBL1201862, “PubChem BioAssay data set” (2004).

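Exposure lasted 48 hours, with cells grown in 96-well plates and compounds tested at five concentrations. Abbreviation: GI50, concentration required for 50% inhibition of growth.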 Calls of active or inactive are those of the source. Cut-off read from the data, not from the text of the source: active = GI50 up to about 1.1 µM and inactive = higher. Where only a bound is given, the exact number is not on record here.

Test systems include DLD-1; DMS-114; DMS-273; HOP-18; KM-20L2; M19-MEL; RXF 631; XF498; SNB-78.
Experiment in all cases: NCI anticancer screen, dose series, 48 h

Consider `COC(=O)CC(c1ccccc1)C1(c2ccccc2)SCCS1` (centres undefined), for which the GI50 is > 290 µM (inactive) with DLD-1; 121 µM (inactive) with DMS-114; 104 µM (inactive) in the assay on DMS-273; > 290 µM (inactive) in the assay on HOP-18; > 290 µM (inactive) in the assay on KM-20L2; > 290 µM (inactive) in the assay with M19-MEL. The GI50 is 161 µM (inactive) with RXF 631 and > 290 µM (inactive) with XF498.
As for `COC(=O)CC1NC(=O)[C@@H]1C(C)O` (some centres undefined), the GI50 in the assay on DLD-1 was > 10 µM (inactive); in the assay with DMS-114, > 100 µM (inactive); in the assay on DMS-273, > 100 µM (inactive); in the assay with KM-20L2, > 100 µM (inactive); in the assay on M19-MEL, > 100 µM (inactive); in the assay with XF498, > 100 µM (inactive).
For `O=C1c2ccccc2C(=O)c2sc(Nc3ccc(Cl)cc3)nc21`, the GI50 with DLD-1 was 1.78 µM (inactive); in the assay with DMS-114 it was 1.82 µM (inactive); with DMS-273, 1.97 µM (inactive); in the assay with HOP-18 it was 2.24 µM (inactive); with KM-20L2, 13.5 µM (inactive); in the assay on M19-MEL it was 0.388 µM (active). Further, the GI50 was 3.49 µM (inactive) in the assay on SNB-78 and 2.16 µM (inactive) in the assay with XF498.
`CCOC(=O)C(=CNC(Cc1c[nH]c2ccccc12)C(=O)OC)C(=O)OCC` (centres undefined): the GI50 was > 100 µM (inactive) in the assay with DLD-1; > 100 µM (inactive) in the assay with DMS-114; 92 µM (inactive) in the assay with HOP-18; > 100 µM (inactive) in the assay with KM-20L2; > 100 µM (inactive) in the assay on M19-MEL; > 100 µM (inactive) with RXF 631. The GI50 in the assay on SNB-78 and in the assay on XF498 was > 100 µM (inactive) each time.
As to `c1cc2c(cc1C1OCC3C(c4ccc5c(c4)OCO5)OCC13)OCO2` (centres undefined), the GI50 in the assay on DLD-1 was 65.3 µM (inactive); in the assay with DMS-114, 40.4 µM (inactive); in the assay with HOP-18, > 100 µM (inactive); with KM-20L2, 35.8 µM (inactive); in the assay on M19-MEL, 51.2 µM (inactive); in the assay on SNB-78, > 100 µM (inactive). Also, the GI50 in the assay with XF498 is 28.8 µM (inactive).
On to `CC(C)(C)[Si](C)(C)O/N=C\c1cccc(O[Si](C)(C)C(C)(C)C)c1`, for which the GI50 in the assay on DLD-1 is 17.8 µM (inactive); in the assay on DMS-114 it was 18.8 µM (inactive); with DMS-273, 17.7 µM (inactive); in the assay with HOP-18, 22.5 µM (inactive); in the assay on KM-20L2 it was 20.1 µM (inactive); in the assay with M19-MEL, 17.8 µM (inactive). Besides, the GI50 is 15.7 µM (inactive) in the assay on SNB-78 and 18.5 µM (inactive) with XF498.
As to `O=C1CCCCCCCCCCC(=O)C2CCOCCOCCOCCC1Cc1cccc(n1)C2`, the GI50 in the assay with DLD-1 is > 100 µM (inactive); in the assay on DMS-114, 77.6 µM (inactive); in the assay on DMS-273, 54.5 µM (inactive); in the assay with KM-20L2, > 100 µM (inactive); with M19-MEL it was > 100 µM (inactive); in the assay on RXF 631 it was 80.4 µM (inactive). For the same compound, the GI50 in the assay on SNB-78 is 79.6 µM (inactive); with XF498 it was 59.7 µM (inactive).
For `O=C1/C(=C/c2ccccc2)CCCC/C1=C\c1ccccc1`, the GI50 in the assay with DLD-1 is 34.2 µM (inactive); in the assay with DMS-114, 42.5 µM (inactive); in the assay with DMS-273, 47.1 µM (inactive); with HOP-18, > 100 µM (inactive); in the assay with KM-20L2 it was 31 µM (inactive); in the assay with M19-MEL, 48.5 µM (inactive). Moreover, the figures for the GI50 in the assay with RXF 631, in the assay on SNB-78 and in the assay on XF498 were 52.8 µM (inactive), > 100 µM (inactive) and 54.5 µM (inactive), respectively.
Take `CC(C)(C)C(=O)/C=C/c1cccc(Oc2ccccc2)c1`: the GI50 is 11.5 µM (inactive) with DLD-1; 16.6 µM (inactive) in the assay on HOP-18; 14.3 µM (inactive) in the assay on KM-20L2; 16.9 µM (inactive) with M19-MEL; 28.1 µM (inactive) with RXF 631; 14.2 µM (inactive) in the assay on SNB-78. Besides, in the assay on XF498, the GI50 was 18.8 µM (inactive).
As to `CCCOc1nc(N)c2cnn(C3CCCCO3)c2n1` (centres undefined), the GI50 with DLD-1 was > 100 µM (inactive); in the assay with DMS-114, > 100 µM (inactive); in the assay on DMS-273, > 100 µM (inactive); with HOP-18, 68.9 µM (inactive); in the assay with KM-20L2, > 100 µM (inactive); with M19-MEL, > 100 µM (inactive). Further, the GI50 in the assay on SNB-78 was > 100 µM (inactive).
As to `CCC(O)(c1ccc(OC)cc1)C(c1ccc(OCc2ccccc2)cc1)c1ccc(OCc2ccccc2)cc1` (centres undefined), the GI50 with DLD-1, in the assay on DMS-114, with DMS-273, with KM-20L2, in the assay with M19-MEL and with RXF 631 was > 100 µM (inactive) in each case. In addition, the GI50 in the assay with SNB-78 and in the assay with XF498 was > 100 µM (inactive) throughout.
For `O=C1C(=O)N(c2cc(Cl)ccc2Cl)C(=O)C(=O)C1c1nc2ccccc2s1`, the GI50 with DLD-1, in the assay on DMS-114, in the assay with DMS-273, in the assay with KM-20L2, with M19-MEL and with SNB-78 was > 100 µM (inactive) in each case. Also, the GI50 with XF498 was > 100 µM (inactive).
For `CN(C)C(=S)/N=c1\ss/c(=N\C(=S)N(C)C)n1-c1ccc2c(c1)OCO2`, the GI50 in the assay with DMS-114 was 5.11 µM (inactive); in the assay with DMS-273, > 100 µM (inactive); in the assay on KM-20L2 it was > 100 µM (inactive).
In the case of `COC(=O)C(Cc1nc2ccc(Cl)cc2nc1O)C(=O)C(=O)Nc1ccccc1[N+](=O)[O-]` (centres undefined), the GI50 with DLD-1 is > 100 µM (inactive); in the assay on DMS-114, > 100 µM (inactive); in the assay with DMS-273, > 100 µM (inactive); in the assay on HOP-18, 93.8 µM (inactive); in the assay with KM-20L2, > 100 µM (inactive); in the assay on M19-MEL it was > 100 µM (inactive). Also, the GI50 with RXF 631, with SNB-78 and with XF498 was > 100 µM (inactive) each time.
With `COC(=O)C(CC(=O)c1c[nH]c2ccccc12)c1c[nH]c2ccccc12` (centres undefined), the GI50 with DLD-1 is 30.8 µM (inactive); in the assay on DMS-114, 15.8 µM (inactive); in the assay on DMS-273 it was 13.5 µM (inactive); in the assay on KM-20L2 it was 17.9 µM (inactive); with M19-MEL, > 10 µM (inactive); with RXF 631 it was 15.8 µM (inactive). The GI50 was 22.2 µM (inactive) with SNB-78 and 17.9 µM (inactive) with XF498.
In the case of `CC1(C)OC(=O)C(c2cccs2)C(=O)O1`, the GI50 with DLD-1, in the assay with DMS-114, with DMS-273, with HOP-18, in the assay with KM-20L2 and with SNB-78 was > 100 µM (inactive) each time. The GI50 in the assay on XF498 was > 100 µM (inactive).
For the compound `COC1[C@@H](OC(C)=O)[C@@H](NC(=O)C(Cl)(Cl)Cl)C(I)[C@@H](N2C(=O)c3ccccc3C2=O)[C@H]1OC` (some centres undefined), the GI50 in the assay on DLD-1, with DMS-114, with DMS-273, with HOP-18, with KM-20L2 and with SNB-78 was > 100 µM (inactive) in each case.
On to `CCCCN(CCCC)C(=O)/C(CC(=O)c1cccc2ccccc12)=N\NC(=O)c1cc2ccccc2cc1O`, for which the GI50 with DLD-1 is 23.4 µM (inactive); with KM-20L2, 22.1 µM (inactive); with M19-MEL it was 20.4 µM (inactive); in the assay on RXF 631, 26.7 µM (inactive); with SNB-78, 24.7 µM (inactive); in the assay with XF498, 20 µM (inactive).
For `COC(=O)c1nn(C(=N)c2ccc(Cl)cc2)c2c1CCC2`, the GI50 with DLD-1, with DMS-114, with DMS-273, in the assay on KM-20L2, with M19-MEL and with SNB-78 was > 100 µM (inactive) in each case. For the same compound, in the assay with XF498, the GI50 is > 100 µM (inactive).
Regarding `Cc1ccccc1NC(=O)C(=O)CC(=O)c1sc(-n2nc(-c3ccccc3)cc2-c2ccccc2)nc1C`, the GI50 in the assay with DLD-1, in the assay on DMS-114, in the assay on DMS-273, in the assay on KM-20L2, in the assay with M19-MEL and in the assay on RXF 631 was > 100 µM (inactive) throughout. The GI50 in the assay on SNB-78 is > 100 µM (inactive).
Take `CN(C)CCCOc1ccc(/C=C2/CCC/C(=C/c3ccc(OCCCN(C)C)cc3)C2=O)cc1`: the GI50 in the assay on DLD-1 was 1.5 µM (inactive); in the assay with DMS-114, 1.56 µM (inactive); with DMS-273 it was 1.45 µM (inactive); with HOP-18, 3.61 µM (inactive); in the assay with KM-20L2, 0.232 µM (active); with SNB-78 it was 3.25 µM (inactive).
For `Brc1c2nc3ccccc3nc2n2ccc3ccccc3c12`, the GI50 in the assay with DLD-1, in the assay on DMS-114, in the assay on DMS-273, with KM-20L2, in the assay on M19-MEL and in the assay with SNB-78 was > 100 µM (inactive) throughout. Moreover, the GI50 with XF498 is > 100 µM (inactive).
With `O=C(N/C(=C\c1cccc([N+](=O)[O-])c1)c1nc2c(O)nc(S)nc2[nH]1)c1ccccc1`, the GI50 in the assay with DLD-1 was > 100 µM (inactive); with DMS-114 it was 88.9 µM (inactive); in the assay with HOP-18, > 100 µM (inactive); in the assay on KM-20L2, > 100 µM (inactive); with M19-MEL it was > 100 µM (inactive); in the assay on RXF 631, > 100 µM (inactive). Moreover, the GI50 in the assay on SNB-78 and in the assay on XF498 was > 100 µM (inactive) in each case.
`CCCCN/C(=N\C#N)N(Cc1ccccc1)Cc1ccccc1`: the GI50 in the assay with DLD-1 is 19.1 µM (inactive); in the assay with DMS-273 it was 16.1 µM (inactive); in the assay with HOP-18, 39.8 µM (inactive); in the assay with KM-20L2, 20.8 µM (inactive); in the assay with M19-MEL, 18.1 µM (inactive); with SNB-78, 18.2 µM (inactive).
`C=CCC1(CN(C)C)CC/C(=C\c2ccc3c(c2)OCO3)C1=O` (centres undefined): the GI50 in the assay with DLD-1 was 27.7 µM (inactive); in the assay with DMS-273 it was 47.6 µM (inactive); in the assay on HOP-18 it was > 100 µM (inactive); with KM-20L2, 28.9 µM (inactive); in the assay with M19-MEL it was 39.6 µM (inactive); with RXF 631, 25.4 µM (inactive). In addition, the GI50 with SNB-78 is > 100 µM (inactive).
`Cn1nc(N)nc1N=S(C)(C)=N`: the GI50 in the assay on DMS-114, with DMS-273, with HOP-18, in the assay with KM-20L2, in the assay on SNB-78 and in the assay on XF498 was > 100 µM (inactive) in each case.
